# Measurements: patent US8524688B2, “Use of sulfated glycosaminoglycans for establishing effective labor in women” (Dilafor AB, priority 2002, dated 2013)
# How the values were obtained:
# cervical fibroblasts = assay: Effect on Ca2+ levels in cervical fibroblasts (Fluo-4 fluorescence); assay type: cell-based, human; conditions: cultures from non-pregnant and term pregnant patients
# Experimental: Fibroblast cultures were established from non-pregnant, and term pregnant patients and from women delivered vaginally (after partus patients). The cells were cultured in monolayer cultures with minimum essential medium with 10% donor calf serum. For experiments these cells were plated on cover glasses with at semi-confluence and loaded with Fluo-4 in phosphate buffered saline containing 10 mM HEPES for 30 min. Initially phosphate buffered saline containing 10 mM HEPES (HEPES-buffer) was pumped into the observation chamber for 30 s, then KCl in the same buffer was pumped for 60 s followed by HEPES-buffer for 30 s. Then 10 ng of PDGF/ml in HEPES-buffer was added. The fluorescence was monitored continuously for 3 min. In other experiments PDGF was replaced with 100 μg of HS6. […] This effect is postulated to be of importance at partus for final preparation of cervix for delivery.
# [1] = tested on: human uterine strips (myometrial strip); assay: Contractile assay on uterine strips in organ bath; conditions: 1 U oxytocin only
# Experimental: In the following test heparan sulfate HS2 and HS6 obtained from the heparin side fraction TB 001-91 SVCM 950130 (Kabi-Pharmacia, Sweden) were tested. HS6 differs from HS2 by being more highly sulfated and having more L-iduronic acid residues (see Table 1 above).
# Uterine samples were obtained from women undergoing elective caesarian section at 38-39 weeks of gestation. The samples measured 20×10×10 mm and were taken from the upper part of the isthmic incision. The biopsy was immediately placed in ice-cold Krebs-Ringer buffer. The biopsies were cut into longitudinal strips, length 10-15 mm and breadth about 5 mm. The strip was mounted vertically in an organ bath of 37° C. containing 2 ml Krebs-Ringer solution. The solution was bubbled with a mixture of 95% O2 and 5% CO2 in order to maintain a pH in the bath of 7.35-7.45. Experiments were carried out after the strips had equilibrated to a stable contractile state, usually within 1-2 h after mounting. The contractions were recorded isometrically with a Grass model 7 polygraph (Grass Instr. Co., Quincy, Mass., USA). All samples were exposed to 100 mM KCl during the experiment in order to get a standardized maximum response. […]
# This procedure was repeated using 6 μg of heparan sulfate. […] The contractions were recorded and evaluated by integrating the surface under the curve. […]
Compound,Change of fluorescence (intracellular Ca2+) (cervical fibroblasts),"Relative contractility of myometrial strip, oxytocin control [1]"
PDGF,No change of fluorescence,–
[Cl-].[K+] [KCl],No change of fluorescence,–
"CC[C@H](C)[C@@H]1NC(=O)[C@H](Cc2ccc(O)cc2)NC(=O)[C@@H](N)CSSC[C@@H](C(=O)N2CCC[C@H]2C(=O)N[C@@H](CC(C)C)C(=O)NCC(N)=O)NC(=O)[C@H](CC(N)=O)NC(=O)[C@H](CCC(N)=O)NC1=O [Oxytocin, oxytocin]",–,226 % of unstimulated control
